Results: ChEMBL document CHEMBL1151820, “Antagonists of the P2X(7) receptor. From lead identification to drug development” (J Med Chem, 2009)
Values belong to the compound of their own block, whether it stands above or below them.

What was measured:
[1] = biological target: T1, P2X purinoceptor 7 (Homo sapiens, UniProt Q99572); assay: Antagonist activity at human P2X7 receptor expressed in human U373 cells assessed as inhibition of BzATP-induced Yo-Pro uptake; type: functional, cell-based, U-373MG ATCC
T1 sequence (Q99572 whole entry): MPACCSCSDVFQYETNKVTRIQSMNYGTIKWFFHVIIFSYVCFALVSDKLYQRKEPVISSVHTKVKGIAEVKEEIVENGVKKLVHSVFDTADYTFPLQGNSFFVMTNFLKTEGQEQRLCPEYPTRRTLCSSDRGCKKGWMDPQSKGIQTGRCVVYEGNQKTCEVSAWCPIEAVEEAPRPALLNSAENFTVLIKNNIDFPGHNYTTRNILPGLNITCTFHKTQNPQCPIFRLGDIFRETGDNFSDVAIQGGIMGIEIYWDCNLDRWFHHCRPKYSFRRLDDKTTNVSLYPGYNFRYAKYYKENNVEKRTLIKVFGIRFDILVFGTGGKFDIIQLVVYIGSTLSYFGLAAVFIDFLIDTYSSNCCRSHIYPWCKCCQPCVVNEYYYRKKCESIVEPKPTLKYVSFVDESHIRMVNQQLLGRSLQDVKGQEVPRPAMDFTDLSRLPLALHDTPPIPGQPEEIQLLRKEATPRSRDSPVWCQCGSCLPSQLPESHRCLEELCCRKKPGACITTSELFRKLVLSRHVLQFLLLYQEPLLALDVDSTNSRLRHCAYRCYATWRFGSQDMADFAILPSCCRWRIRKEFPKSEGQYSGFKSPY

[2] = Metabolic stability in rat hepatocytes assessed as intrinsic clearance assessed per million cells; type: ADME, cell-based, Liver, Hepatocyte
[3] = biological target: T1, P2X purinoceptor 7; assay: Antagonist activity at P2X7 receptor in human THP1 cells assessed as inhibition of BzATP-induced ethidium uptake; type: functional, cell-based, THP-1
[4] = Metabolic stability in human liver microsomes assessed as half life; type: ADME, Microsome
[5] = Oral bioavailability in rat; type: ADME, organism-based; details: in vivo
[6] = biological target: T2, P2X purinoceptor 7 (Rattus norvegicus, UniProt Q64663); assay: Activity at rat P2X7 receptor expressed in HEK cells assessed as effect on BzATP-induced ethidium uptake; type: cell-based, HEK293
T2 sequence (Q64663 whole entry): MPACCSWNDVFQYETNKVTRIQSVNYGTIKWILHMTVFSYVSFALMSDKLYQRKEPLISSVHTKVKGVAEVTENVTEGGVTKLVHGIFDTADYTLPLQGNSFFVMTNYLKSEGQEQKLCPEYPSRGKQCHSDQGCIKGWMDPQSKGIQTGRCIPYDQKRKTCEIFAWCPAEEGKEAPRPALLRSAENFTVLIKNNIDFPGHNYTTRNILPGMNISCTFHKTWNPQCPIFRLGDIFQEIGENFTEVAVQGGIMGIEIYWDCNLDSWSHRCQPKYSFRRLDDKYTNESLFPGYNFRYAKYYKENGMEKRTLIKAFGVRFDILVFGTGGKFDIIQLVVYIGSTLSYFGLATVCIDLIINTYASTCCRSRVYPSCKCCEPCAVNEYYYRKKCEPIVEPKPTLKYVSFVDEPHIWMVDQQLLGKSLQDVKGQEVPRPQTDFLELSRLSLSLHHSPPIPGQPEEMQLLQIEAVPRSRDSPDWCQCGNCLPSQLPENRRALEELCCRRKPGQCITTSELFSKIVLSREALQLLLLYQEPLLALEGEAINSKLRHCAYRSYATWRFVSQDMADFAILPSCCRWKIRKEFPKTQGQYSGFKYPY

[7] = Plasma clearance in rat; type: ADME, organism-based
[8] = Volume of distribution at steady state in rat; type: ADME, organism-based; details: in vivo, read-out: Vdss
[9] = Half life in rat; type: ADME, organism-based; details: in vivo
[10] = biological target: T1, P2X purinoceptor 7; assay: Antagonist activity at human P2X7 receptor expressed in HEK293 cells assessed as inhibition of BzATP-induced calcium influx; type: functional, cell-based
[11] = biological target: T1, P2X purinoceptor 7; assay: Antagonist activity at P2X7 receptor in human lymphocytes assessed as inhibition of ATP-induced Ba2+ influx; type: functional, cell-based
[12] = biological target: T3, P2X purinoceptor 7 (Homo sapiens) (UniProt Q99572); details: HEK293, at 3 µM
T3 sequence (whole entry): T1 sequence (Q99572 whole entry)

[13] = biological target: T1, P2X purinoceptor 7; assay: Antagonist activity at P2X7 receptor in human THP1 cells assessed as effect on BzATP-induced Yo-Pro uptake; type: functional, cell-based, THP-1
[14] = tested on: Mus musculus; assay: In vivo receptor activity at P2X7 receptor in mouse model assessed as ATP-induced IL1-beta release; type: functional

Structure (SMILES): c1ccc(CCCC2=N[C@H](c3ccccc3)[C@H](c3ccccc3)N2)cc1
IC50 [1]: 501 nM

Structure (SMILES): O=C(NCC12CC3CC(CC(C3)C1)C2)c1ccccc1Cl
hepatocyte CLint [2]: > 100 µL/min/1e6 cells

Structure (SMILES): Cc1ccccc1CCC1=N[C@H](c2ccccc2)[C@H](c2ccccc2)N1
IC50 [1]: 63.1 nM

Structure (SMILES): C[C@H](CO)n1ccc2c(NC(=O)Cc3ccc(Cl)c(C(F)(F)F)c3)cccc2c1=O
IC50 [3]: 1.26 nM
half-life [4]: 1 h
bioavailability [5]: 25%

Structure (SMILES): c1ccc(C2=N[C@@H](c3ccccc3)[C@@H](c3ccccc3)N2)cc1
IC50 [1]: 3980 nM

Structure (SMILES): Clc1cccc(-n2ncnc2NCc2cccnc2N2CCCC2)c1Cl
IC50 [6]: 25.1 nM

Structure (SMILES): Fc1cccc(CNC2=N[C@@H](c3ccccc3Cl)[C@@H](c3ccccc3Cl)N2)c1
IC50 [1]: 398 nM

Structure (SMILES): c1ccc(CCC2=N[C@H](c3ccccc3)[C@H](c3ccccc3)N2)cc1
IC50 [1]: 79.4 nM

Structure (SMILES): O=C(CC12CC3CC(CC(C3)C1)C2)Nc1ccccc1
Kb ([3]; read-out: pA2 (converted)): 39.8 nM
hepatocyte CLint [2]: 5 µL/min/1e6 cells
clearance [7]: 47 mL/min/kg
Vd [8]: 2 L/kg
half-life [9]: 1 h

Structure (SMILES): Cc1ccccc1N1CCN(C(=O)[C@H](Cc2ccc(OS(=O)(=O)c3cccc4cnccc34)cc2)N(C)S(=O)(=O)c2cccc3cnccc23)CC1
IC50 [10]: 15.8 nM

Structure (SMILES): Cc1ccccc1Nc1ncnn1-c1cccc(Cl)c1Cl
IC50 [3]: 20 nM
IC50 [6]: 251 nM

Structure (SMILES): CN([C@@H](Cc1ccc(OS(=O)(=O)c2cccc3cnccc23)cc1)C(=O)N1CCN(CCc2ccccc2)CC1)S(=O)(=O)c1cccc2cnccc12
IC50 [10]: 631 nM

Structure (SMILES): Clc1ccc(CCC2=N[C@H](c3ccccc3)[C@H](c3ccccc3)N2)cc1
IC50 [1]: > 1000 nM

Structure (SMILES): O=C(CNS(=O)(=O)c1cccc2cnccc12)N1CCN(c2ccc(F)cc2)CC1
IC50 [10]: 63.1 nM

Structure (SMILES): O=C(NCC1(O)CCCCCC1)c1cc(-n2ncc(=O)[nH]c2=O)ccc1Cl
IC50 [3]: 100 nM
ED50 [14]: 2 mg/kg

Structure (SMILES): Cc1cc(-c2ccc(Cl)c(C(=O)NCC3(O)CCCCCC3)c2)nn1CC(=O)NCCN(C)C
IC50 [13]: 3.16 nM

Structure (SMILES): CN([C@@H](Cc1ccc(OS(=O)(=O)c2cccc3cnccc23)cc1)C(=O)N1CCN(c2cccc(Cl)c2)CC1)S(=O)(=O)c1cccc2cnccc12
IC50 [10]: 12.6 nM

Next, values leading:

IC50 [1]: 316 nM
Structure (SMILES): Cc1ccccc1CC1=N[C@H](c2ccccc2)[C@H](c2ccccc2)N1

IC50 [1]: 200 nM
Structure (SMILES): Fc1cccc(COC2=N[C@H](c3ccccc3)[C@H](c3ccccc3)N2)c1

IC50 [1]: > 3160 nM
Structure (SMILES): COc1ccc(CCC2=N[C@H](c3ccccc3)[C@H](c3ccccc3)N2)cc1

IC50 [3]: 6.31 nM
half-life [4]: 3.7 h
bioavailability [5]: > 75%
Structure (SMILES): O=C(Cc1ccc(C(F)(F)F)c(F)c1)Nc1c(Cl)ccc2c(=O)n(CCO)ccc12

IC50 [10]: 50.1 nM
IC50 [11]: 12.6 nM
inhibition [12]: 85%
Structure (SMILES): CN([C@@H](Cc1ccc(OS(=O)(=O)c2cccc3cnccc23)cc1)C(=O)N1CCN(c2ccccc2)CC1)S(=O)(=O)c1cccc2cnccc12

IC50 [1]: 200 nM
Structure (SMILES): Fc1cccc(CSC2=N[C@@H](c3ccccc3)[C@@H](c3ccccc3)N2)c1

IC50 [1]: 79.4 nM
Structure (SMILES): Fc1cccc(CC2=N[C@H](c3ccccc3)[C@H](c3ccccc3)N2)c1

hepatocyte CLint [2]: > 100 µL/min/1e6 cells
clearance [7]: 100 mL/min/kg
Vd [8]: 3 L/kg
half-life [9]: 0.5 h
Structure (SMILES): O=C(NCC12CC3CC(CC(C3)C1)C2)c1cc(Cl)ccc1Cl

IC50 [13]: 200 nM
Structure (SMILES): O=C(NCC1(O)CCCCCC1)c1cc(-c2cc[nH]n2)ccc1Cl

half-life [4]: 1.5 h
bioavailability [5]: 25%
Structure (SMILES): Cc1ccc2c(=O)n([C@H](C)CO)ccc2c1NC(=O)Cc1ccc(C(F)(F)F)c(F)c1

IC50 [10]: 20 nM
Structure (SMILES): O=C(CNS(=O)(=O)c1cccc2cnccc12)N1CCN(c2ccc([N+](=O)[O-])cc2)CC1

IC50 [10]: 6.31 nM
Structure (SMILES): O=C([C@H](Cc1ccc(OS(=O)(=O)c2cccc3cnccc23)cc1)NS(=O)(=O)c1cccc2cnccc12)N1CCN(c2ccc(F)cc2)CC1
